These results are taken from ChEMBL document CHEMBL1201862, “PubChem BioAssay data set” (2004).

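Grown in 96-well plates, cells were treated for 48 hours with each compound at five concentrations. Insufficient inhibition: endpoint recorded as highest concentration tested. Abbreviation: GI50, concentration required for 50% inhibition of growth.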 Active and inactive are the calls of the source. Cut-off read from the data, not from the text of the source: active = GI50 up to about 1.1 µM and inactive = higher.

Test systems include TK-10; UACC-257; KM12; 786-0; HCT-116; SK-MEL-5; CAKI-1; NCI-H522; UACC-62; HCC 2998; LOX IMVI; MCF7; CCRF-CEM; HT-29; EKVX; BT-549; SNB-19; SNB-75; SK-OV-3; SF-539.
What all share (assay): NCI tumour cell line growth inhibition, 48 h

With `Clc1ccc(OCc2nnc(COc3ccc(OCc4nnc(COc5ccc(Cl)cc5Cl)o4)c(Cl)c3)o2)c(Cl)c1`, the GI50 with TK-10 is 76 µM (inactive); in the assay with UACC-257 it was > 100 µM (inactive); in the assay with KM12, 45.7 µM (inactive); with 786-0, 30.8 µM (inactive); with HCT-116, 44.1 µM (inactive); with SK-MEL-5 it was 41.1 µM (inactive). Further, the GI50 in the assay on CAKI-1 is 24.8 µM (inactive); in the assay on NCI-H522, 18.1 µM (inactive); with UACC-62, 40.5 µM (inactive); in the assay with HCC 2998, 28.7 µM (inactive); in the assay with LOX IMVI it was 17.3 µM (inactive); in the assay on MCF7, 32.1 µM (inactive). Besides, the GI50 was 17.5 µM (inactive) in the assay with CCRF-CEM; 27.4 µM (inactive) in the assay on HT-29; 13.6 µM (inactive) in the assay on EKVX; 69.2 µM (inactive) in the assay on BT-549; 68.4 µM (inactive) in the assay on SNB-19.
In the case of `S=C(N/N=C/c1ccccn1)N1CCCCC1`, the GI50 in the assay on TK-10 was 0.0205 µM (active); with UACC-257, < 0.01 µM (active); with SNB-75 it was 0.0315 µM (active); in the assay on KM12, < 0.0262 µM (active); in the assay on 786-0, < 0.0137 µM (active); in the assay with SK-OV-3, < 0.01 µM (active). For the same compound, the GI50 in the assay with HCT-116 is < 0.01 µM (active); with SK-MEL-5, < 0.0198 µM (active); with CAKI-1, < 0.0153 µM (active); in the assay with UACC-62 it was 0.0497 µM (active); in the assay on HCC 2998 it was 1.22 µM (inactive); in the assay on LOX IMVI, < 0.01 µM (active). Further, the GI50 in the assay on MCF7 was < 0.01 µM (active); in the assay with CCRF-CEM, < 0.01 µM (active); in the assay with HT-29, < 0.01 µM (active); with EKVX it was 0.07 µM (active); in the assay with SF-539, 0.135 µM (active); in the assay on BT-549, 0.0249 µM (active). The GI50 with SNB-19 is 1.23 µM (inactive).
As to `CCOc1ccc(N/C(=C(/C(Cl)=C(/Cl)NCCN)[N+](=O)[O-])n2nnc3ccccc32)cc1`, the GI50 was > 100 µM (inactive) with UACC-257; 46.8 µM (inactive) with SNB-75; 30.8 µM (inactive) with KM12; 31.8 µM (inactive) with 786-0; > 100 µM (inactive) in the assay on SK-OV-3; 24.3 µM (inactive) with HCT-116. For the same compound, the GI50 in the assay with CAKI-1 was 17.2 µM (inactive); with UACC-62 it was 43.5 µM (inactive); in the assay on HCC 2998 it was > 100 µM (inactive); with MCF7, 35 µM (inactive); in the assay with CCRF-CEM, 22.6 µM (inactive); in the assay with HT-29, 33.3 µM (inactive). Further, the GI50 in the assay with EKVX is 50.2 µM (inactive); in the assay on SF-539 it was 18.2 µM (inactive); in the assay on BT-549 it was 28.4 µM (inactive); with SNB-19 it was > 100 µM (inactive).
`COc1cc(/C=C2\N=C(c3ccccc3)N(c3nc4c(Cl)cc(Cl)cc4s3)C2=O)ccc1O`: the GI50 in the assay with TK-10 was 39.9 µM (inactive); in the assay with UACC-257, 30.9 µM (inactive); in the assay on SNB-75 it was 39.3 µM (inactive); in the assay with KM12, 25.4 µM (inactive); with 786-0, 35.9 µM (inactive); in the assay with SK-OV-3 it was 55.7 µM (inactive). The GI50 is 24 µM (inactive) in the assay on HCT-116; 24.5 µM (inactive) in the assay on SK-MEL-5; 46.3 µM (inactive) in the assay with CAKI-1; 25.8 µM (inactive) in the assay with UACC-62; 19.8 µM (inactive) with HCC 2998; 20.5 µM (inactive) in the assay with LOX IMVI. In addition, the GI50 is 28.1 µM (inactive) with MCF7; 13.6 µM (inactive) in the assay with CCRF-CEM; 27.7 µM (inactive) with HT-29; 17.9 µM (inactive) in the assay with EKVX; 41.6 µM (inactive) in the assay on SF-539; 21.1 µM (inactive) with BT-549. Further, the GI50 with SNB-19 was 36.6 µM (inactive).
Consider `COc1ccc(-c2nnc3n(C)c4ccccc4n3c2=O)cc1`, for which the GI50 in the assay on TK-10 is 89.1 µM (inactive); in the assay on UACC-257 it was > 100 µM (inactive); in the assay on SNB-75, 20.8 µM (inactive); in the assay with KM12, > 100 µM (inactive); in the assay on 786-0, 37.2 µM (inactive); with HCT-116 it was 48.6 µM (inactive). For the same compound, the GI50 was > 100 µM (inactive) with SK-MEL-5; 76 µM (inactive) in the assay on CAKI-1; 77.8 µM (inactive) with NCI-H522; > 100 µM (inactive) in the assay with HCC 2998; > 100 µM (inactive) in the assay with LOX IMVI; > 100 µM (inactive) in the assay on MCF7. For the same compound, the GI50 is > 100 µM (inactive) in the assay on CCRF-CEM; > 100 µM (inactive) with HT-29; > 100 µM (inactive) in the assay on EKVX; 32.7 µM (inactive) in the assay on SF-539; 72.4 µM (inactive) with BT-549; 91.8 µM (inactive) in the assay on SNB-19.
Turning to `CC1(C)OC(=O)C(=Cc2ccc([N+](=O)[O-])s2)C(=O)O1`, the GI50 with TK-10 was 17.3 µM (inactive); with UACC-257, 18.6 µM (inactive); with KM12, 14.7 µM (inactive); in the assay on 786-0, 16.9 µM (inactive); in the assay with SK-OV-3, 25.5 µM (inactive); with HCT-116, 2.4 µM (inactive). Also, the GI50 was 16.2 µM (inactive) in the assay with SK-MEL-5; 15.6 µM (inactive) in the assay on CAKI-1; 11.3 µM (inactive) in the assay on HCC 2998; 16.7 µM (inactive) in the assay with LOX IMVI; 12.7 µM (inactive) in the assay on MCF7; 13.2 µM (inactive) with CCRF-CEM. Also, the GI50 was 13.4 µM (inactive) with HT-29; 17.1 µM (inactive) with EKVX; 15.4 µM (inactive) with SF-539; 13.4 µM (inactive) with BT-549; 16.5 µM (inactive) with SNB-19.
Regarding `c1ccc(CCN2CCN=C2Cc2ccccc2)cc1`, the GI50 in the assay with TK-10, in the assay with UACC-257, in the assay with SNB-75, in the assay with KM12, in the assay on 786-0 and with SK-OV-3 was > 100 µM (inactive) throughout. Moreover, the GI50 is > 100 µM (inactive) in the assay with HCT-116; > 100 µM (inactive) with SK-MEL-5; > 100 µM (inactive) in the assay on NCI-H522; > 100 µM (inactive) in the assay on UACC-62; 21.3 µM (inactive) in the assay on HCC 2998; > 100 µM (inactive) in the assay with LOX IMVI. Also, the GI50 was > 100 µM (inactive) in the assay on MCF7; 37.3 µM (inactive) with CCRF-CEM; 67.1 µM (inactive) in the assay with HT-29; > 100 µM (inactive) in the assay on EKVX; > 100 µM (inactive) in the assay with BT-549; > 100 µM (inactive) in the assay with SNB-19.
`COc1ccccc1/N=N/C(=N\NC(=O)c1ccc(C)cc1)c1ccc(N(CCC#N)CCC#N)cc1C`: the GI50 was > 100 µM (inactive) with TK-10; 40.3 µM (inactive) in the assay on UACC-257; 24.1 µM (inactive) with SNB-75; 41.6 µM (inactive) in the assay on KM12; 70.3 µM (inactive) in the assay with 786-0; 32.5 µM (inactive) in the assay on SK-OV-3. Also, the GI50 is 31.6 µM (inactive) in the assay on HCT-116; 20.8 µM (inactive) in the assay with SK-MEL-5; > 100 µM (inactive) in the assay on CAKI-1; 42.6 µM (inactive) in the assay on HCC 2998; 40.9 µM (inactive) in the assay on LOX IMVI; 34.6 µM (inactive) in the assay on MCF7. For the same compound, the GI50 with CCRF-CEM is 0.693 µM (active); in the assay with HT-29 it was 39.7 µM (inactive); in the assay with EKVX, > 100 µM (inactive); in the assay with SF-539 it was > 100 µM (inactive); in the assay with BT-549, 35.2 µM (inactive); in the assay on SNB-19, 97.3 µM (inactive).
As to `O=C1OCN(c2ccccc2)C12CCN(Cc1ccccc1)CC2`, the GI50 with TK-10 was 32.8 µM (inactive); in the assay on UACC-257 it was 16.7 µM (inactive); with SNB-75, 19.4 µM (inactive); in the assay with KM12, 23.7 µM (inactive); in the assay on 786-0, 26.8 µM (inactive); with SK-OV-3, 74.6 µM (inactive). Further, the GI50 with HCT-116 is 31.7 µM (inactive); with SK-MEL-5, 19.5 µM (inactive); with CAKI-1 it was 45 µM (inactive); in the assay on UACC-62, 18.6 µM (inactive); in the assay on HCC 2998 it was 6.62 µM (inactive); with LOX IMVI, 14.6 µM (inactive). Also, the GI50 was 32.6 µM (inactive) in the assay on MCF7; 15.5 µM (inactive) with CCRF-CEM; 16.4 µM (inactive) in the assay on HT-29; > 100 µM (inactive) with EKVX; 20.8 µM (inactive) with SF-539; 67.1 µM (inactive) in the assay with BT-549. The GI50 with SNB-19 is 67 µM (inactive).
For the compound `C=CCN1C(=O)N/C(=C\c2ccc(Cl)cc2)C1=O`, the GI50 in the assay with TK-10, in the assay with UACC-257, in the assay on SNB-75, in the assay on KM12, in the assay on 786-0 and in the assay on SK-OV-3 was > 100 µM (inactive) each time. Also, the GI50 in the assay with HCT-116 is > 100 µM (inactive); in the assay on SK-MEL-5, > 100 µM (inactive); in the assay with CAKI-1 it was > 100 µM (inactive); in the assay with NCI-H522, 87.7 µM (inactive); with UACC-62, 97.7 µM (inactive); with LOX IMVI, > 100 µM (inactive). Moreover, the GI50 in the assay on MCF7 was > 100 µM (inactive); in the assay on CCRF-CEM it was > 100 µM (inactive); with HT-29, > 100 µM (inactive); in the assay on EKVX, 93.8 µM (inactive); in the assay on SF-539, > 100 µM (inactive); in the assay with BT-549 it was > 100 µM (inactive). Also, in the assay with SNB-19, the GI50 was > 100 µM (inactive).
As to `CCCCCCCCCCCCCCCCOC[C@H](COC(c1ccccc1)(c1ccccc1)c1ccccc1)O[PH](=S)OC` (some centres undefined), the GI50 in the assay on TK-10, in the assay with UACC-257, in the assay on SNB-75, with KM12, in the assay with 786-0 and in the assay with SK-OV-3 was > 100 µM (inactive) each time. Moreover, the GI50 in the assay with HCT-116, with SK-MEL-5, in the assay on CAKI-1, with NCI-H522, in the assay on UACC-62 and with LOX IMVI was > 100 µM (inactive) each time. For the same compound, the GI50 with MCF7, in the assay on CCRF-CEM, in the assay with HT-29, in the assay on EKVX, with SF-539 and with BT-549 was > 100 µM (inactive) in each case. The GI50 in the assay on SNB-19 is > 100 µM (inactive).
